Data reported in patent US20240327459A1, “PEPTIDE FRAGMENTS FOR TREATMENT OF DIABETES” (Follicum AB, priority 2018, published 2024).
“Also recorded” adds a separate entry of the source.

Assays:
[1] = test system: diet induced obese c57BI6 mice; assay: Acute insulin response in diet induced obese mice after long term dosing; type: in vivo, mouse; settings: 300 nmol/kg subcutaneously 5 days per week, 12 weeks high fat diet; 1 minute after 1 g/kg iv glucose; P=0.01
Procedure: Materials and methods: To investigate the effects of FOL-056 in vivo in a high fat diet model, wild type c57BI6 mice were subcutaneously dosed 5 days per week with 300 nmol/kg FOL-056, while being fed high fat diet for 12 weeks. Control animals were dosed with PBS.
In diet induced obese c57BI6 mice, untreated or dosed with FOL-056, the fasting plasma insulin levels were measured before as well as 1 minute after an intravenous glucose injection of 1 g/kg. The insulin value measured before the glucose injection was subtracted from the value measured after the injection for each individual mouse in order to obtain the acute insulin response (AIR). (FIG. 20)

human islets = assay: Insulin secretion from human pancreatic islets; type: cell-based; settings: 1 nM peptide, 16.7 mM glucose, 60 minutes, two donors
Procedure: To investigate the functionality of FOL-056 in human primary tissue, the pancreatic islets from two non-diabetic human donors were used. Islets were picked, aliquoted in groups of 12 and incubated at 37° C. in 1 ml Krebs-Ringer bicarbonate buffer, pH 7.4, supplemented with 10 mM HEPES, 0.1% bovine serum albumin and 1.0 mM glucose. Following pre-incubation, the buffer was exchanged with fresh Krebs-Ringer buffer as described above and supplemented with specific glucose concentrations (1 mM or 16.7 mM), FOL-056 peptides (1 nM) or Liraglutide (100 nM). Immediately after 60 minutes incubation at 37° C., an aliquot of the buffer was removed and frozen for subsequent insulin ELISA assay. (FIG. 19)

INS-1E cells [2] = assay: Insulin secretion from INS-1E cells (Example 18); type: cell-based, rat; settings: 100 nM peptide, high (16.7 mM) glucose buffer, 60 min, vs un-supplemented buffer
Procedure: To investigate the stimulatory effect of FOL-056 on insulin secretion we used INS-1E cells. The cells were seeded overnight and washed with PBS before pre-incubation for 60 min at 37° C. in Krebs-Ringer bicarbonate buffer (KRB), pH 7.4, supplemented with 10 mM HEPES, 0.1% bovine serum albumin. Following pre-incubation, the buffer was discarded and the INS-1E cells were incubated in fresh KRB buffer supplemented with 10 mM HEPES, 0.1% bovine serum albumin with or without peptide FOL-056. For comparative purposes cells treated with FOL-014 was included. Following 60 min incubation at 37.C, the buffer was removed and frozen for subsequent insulin assay.

db/db mice = assay: HbA1c in db/db mice after 4 weeks of dosing; type: in vivo, mouse; settings: 100 nmol/kg subcutaneously, 5 days per week for 4 weeks, vs PBS control
Procedure: To investigate the long-term effect of FOL-014 and FOL-056 in diabetic mice, db/db mice were dosed with 100 nmol/kg peptide subcutaneously, 5 days per week for 4 weeks. Control mice were injected with PBS. After 4 weeks of treatment the mice were terminated and 25 μl whole blood was immediately frozen for subsequent HbA1c analysis. (FIG. 21).

INS-1E cells [3] = assay: Insulin secreting capacity after 72 hours of glucotoxic conditions (Examples 19, 22); type: cell-based, rat; settings: Example 19, 20 mM glucose 72 hours with peptide, then 16.7 mM glucose 1 h
Procedure: To investigate the β-cell protective effect of FOL-056, we subjected INS-1E to cytotoxic levels of glucose for 72 hours. Rat INS-1E cells were seeded in 96-well plates (2×10^3 cells/well) in cRPMI medium. Following 72 hours of incubation, the medium was changed to RPMI containing 20 mM glucose with or without FOL-056 or FOL-014 and were cultured at 37° C. during an additional 72 hours to induce glucotoxicity. RPMI containing 5 mM glucose was included as a low glucose control. Following 72 hours, the medium was removed and the INS-1E cells were equilibrated in Krebs-Ringer bicarbonate buffer (KREB), pH 7.4, (supplemented with 10 mM HEPES, 0.1% bovine serum albumin and 2.8 mM glucose) for 2 hours. After equilibration, the buffer was changed and the INS-1E cells were incubated in KREBs containing 16.7 mM glucose […] during 1 h. Immediately after incubation, an aliquot of the buffer was removed and frozen for subsequent assay of insulin content.
To investigate the β-cell protective effect of several novel peptide fragments derived from FOL-005 and FOL-014, INS-1 cells were subjected to cytotoxic levels of glucose for 72 hours. […] In order to correct for the variance between experiments, all values were normalized to, and expressed as percentage of the average value of the high glucose control in the individual experiments. […]

[4] = test system: human pancreatic β-cell line 1.2B4; assay: Insulin secretion from 1.2B4 human β-cells; type: cell-based; settings: 100 nM peptide, 16.7 mM glucose, 60 minutes
Procedure: In order to test the effect of FOL-014 and FOL-056 in human cells, the human pancreatic β-cell line 1.2B4 were cultured at 37° C. and 5% CO2 in RPMI 1640 supplemented with 10% fetal bovine serum, 50 IU/mL penicillin, 50 mg/L streptomycin, 1 mM L-glutamine. 1.2B4 cells were seeded in 24-well plates in RPMI medium and following overnight incubation, the medium was removed before pre-incubation for 40 min at 37° C. in Krebs-Ringer bicarbonate buffer, pH 7.4, supplemented with 10 mM HEPES, 0.1% bovine serum albumin and 1.0 mM glucose. Following pre-incubation, the buffer was exchanged with fresh Krebs-Ringer buffer as described above and supplemented with specific glucose concentrations, 1 mM or 16.7 mM. FOL-014, FOL-056 or Liraglutide was added at a concentration of 100 nM in the presence of 16.7 mM glucose. Immediately after 60 minutes incubation at 37° C., an aliquot of the buffer was removed and frozen for subsequent insulin ELISA assay. (FIG. 18)

## AEIDSIELSYGIK (MISC_FEATURE - peptide) [FOL-056]
[1]
  acute insulin response (AIR): significantly improved; also recorded: significantly higher
Human islets
  insulin secretion: potentiates the capacity of primary human pancreatic islets to secrete insulin as a response to high glucose levels; also recorded: significantly increased the insulin secretion as compared with cells treated with an un-supplemented high glucose buffer
INS-1E cells [2]
  insulin secretion: secrete significantly more insulin compared to unstimulated control cells; also recorded: significantly increased the insulin secretion as compared with cells treated with an un-supplemented high glucose buffer
db/db mice
  HbA1c: reduce the HbA1c in db/db mice as compared with the untreated control group; also recorded: significantly lower HbA1c
INS-1E cells [3]
  insulin secreting ability after glucotoxic conditions: preserves β-cell function as shown by retained glucose induced insulin secretion; also recorded: abolished the glucotoxic effects and retained insulin release at the same level as from β-cells in the low (5 mM) glucose treatment group
[4]
  insulin secretion: increase the insulin secretion capacity in 1.2B4 human β-cells; also recorded: significantly increased the insulin secretion as compared with cells treated with an un-supplemented high glucose buffer
